From the NIST ThermoML archive (doi:10.1021/je900437b)

Experiment: xn = mol fraction of the nth substance listed
Settings: 101 kPa, Liquid; for speed of sound: Sing-around technique in a fixed-path interferometer; for mass density: Vibrating tube method

CN(CCO)CCO [N-methyldiethanolamine] + NCCO
Settings	mass density [kg/m3]	speed of sound [m/s]
293.15 K, x2 = 0	1042.2	1585.5
293.15 K, x2 = 0.1789	1040.32	1603.7
293.15 K, x2 = 0.3286	1038.49	1622.3
293.15 K, x2 = 0.456	1036.46	1640
293.15 K, x2 = 0.5691	1034.2	1656.3
293.15 K, x2 = 0.6614	1031.81	1671.6
293.15 K, x2 = 0.7451	1029.17	1686
293.15 K, x2 = 0.8197	1026.39	1698.7
293.15 K, x2 = 0.854	1025	1705.5
293.15 K, x2 = 0.8865	1023.48	1712
293.15 K, x2 = 0.9461	1020.22	1723.3
293.15 K, x2 = 0.9738	1018.27	1729.4
298.15 K, x2 = 0	1038.29	1570.1
298.15 K, x2 = 0.1789	1036.35	1588.5
298.15 K, x2 = 0.3286	1034.46	1607.1
298.15 K, x2 = 0.456	1032.46	1624.7
298.15 K, x2 = 0.5691	1030.16	1641
298.15 K, x2 = 0.6614	1027.72	1656.2
298.15 K, x2 = 0.7451	1025.1	1670.5
298.15 K, x2 = 0.8197	1022.32	1683.1
298.15 K, x2 = 0.854	1020.84	1689.8
298.15 K, x2 = 0.8865	1019.33	1696.3
298.15 K, x2 = 0.9461	1016.09	1707.3
298.15 K, x2 = 0.9738	1014.2	1713.3
303.15 K, x2 = 0	1034.36	1554.8
303.15 K, x2 = 0.1789	1032.34	1573.4
303.15 K, x2 = 0.3286	1030.41	1591.9
303.15 K, x2 = 0.456	1028.38	1609.4
303.15 K, x2 = 0.5691	1026.07	1625.7
303.15 K, x2 = 0.6614	1023.61	1640.8
303.15 K, x2 = 0.7451	1020.96	1655
303.15 K, x2 = 0.8197	1018.17	1667.5
303.15 K, x2 = 0.854	1016.66	1674.1
303.15 K, x2 = 0.8865	1015.15	1680.6
303.15 K, x2 = 0.9461	1011.9	1691.5
303.15 K, x2 = 0.9738	1009.95	1697.5
308.15 K, x2 = 0	1030.43	1539.5
308.15 K, x2 = 0.1789	1028.36	1558.2
308.15 K, x2 = 0.3286	1026.41	1576.6
308.15 K, x2 = 0.456	1024.37	1594
308.15 K, x2 = 0.5691	1022.01	1610.2
308.15 K, x2 = 0.6614	1019.55	1625.2
308.15 K, x2 = 0.7451	1016.86	1639.4
308.15 K, x2 = 0.8197	1014.03	1651.8
308.15 K, x2 = 0.854	1012.55	1658.3
308.15 K, x2 = 0.8865	1011.03	1664.7
308.15 K, x2 = 0.9461	1007.83	1675.5
308.15 K, x2 = 0.9738	1005.91	1681.3
313.15 K, x2 = 0	1026.48	1524.2
313.15 K, x2 = 0.1789	1024.36	1543
313.15 K, x2 = 0.3286	1022.38	1561.3
313.15 K, x2 = 0.456	1020.33	1578.7
313.15 K, x2 = 0.5691	1017.96	1594.7
313.15 K, x2 = 0.6614	1015.47	1609.7
313.15 K, x2 = 0.7451	1012.76	1623.8
313.15 K, x2 = 0.8197	1009.92	1636
313.15 K, x2 = 0.854	1008.44	1642.5
313.15 K, x2 = 0.8865	1006.91	1648.8
313.15 K, x2 = 0.9461	1003.74	1659.5
313.15 K, x2 = 0.9738	1001.87	1665.2
318.15 K, x2 = 0	1022.53	1508.8
318.15 K, x2 = 0.1789	1020.38	1527.7
318.15 K, x2 = 0.3286	1018.35	1546
318.15 K, x2 = 0.456	1016.27	1563.2
318.15 K, x2 = 0.5691	1013.89	1579.2
318.15 K, x2 = 0.6614	1011.39	1594.1
318.15 K, x2 = 0.7451	1008.66	1608
318.15 K, x2 = 0.8197	1005.81	1620.2
318.15 K, x2 = 0.854	1004.31	1626.6
318.15 K, x2 = 0.8865	1002.79	1632.8
318.15 K, x2 = 0.9461	999.607	1643.3
318.15 K, x2 = 0.9738	997.788	1649
323.15 K, x2 = 0	1018.58	1493.4
323.15 K, x2 = 0.1789	1016.38	1512.4
323.15 K, x2 = 0.3286	1014.32	1530.6
323.15 K, x2 = 0.456	1012.2	1547.7
323.15 K, x2 = 0.5691	1009.81	1563.6
323.15 K, x2 = 0.6614	1007.31	1578.4
323.15 K, x2 = 0.7451	1004.57	1592.2
323.15 K, x2 = 0.8197	1001.7	1604.3
323.15 K, x2 = 0.854	1000.21	1610.7
323.15 K, x2 = 0.8865	998.693	1616.8
323.15 K, x2 = 0.9461	995.464	1627.2
323.15 K, x2 = 0.9738	993.693	1632.8

OCCN(CCO)CCO [triethanolamine] + NCCO
Settings	mass density [kg/m3]	speed of sound [m/s]
298.15 K, x2 = 0	1120.82	1610.5
298.15 K, x2 = 0.1159	1116.38	1625.2
298.15 K, x2 = 0.2165	1111.37	1637.8
298.15 K, x2 = 0.3017	1106.52	1648.4
298.15 K, x2 = 0.3788	1101.52	1658.1
298.15 K, x2 = 0.4492	1096.35	1666.8
298.15 K, x2 = 0.5121	1091.14	1674.3
298.15 K, x2 = 0.6192	1080.56	1686.4
298.15 K, x2 = 0.7099	1069.5	1695.9
298.15 K, x2 = 0.7849	1058.49	1702.7
298.15 K, x2 = 0.8509	1046.99	1708
298.15 K, x2 = 0.907	1035.53	1712.1
298.15 K, x2 = 0.9561	1023.91	1715.6
303.15 K, x2 = 0	1118.06	1600.5
303.15 K, x2 = 0.1159	1113.44	1615.2
303.15 K, x2 = 0.2165	1108.35	1628
303.15 K, x2 = 0.3017	1103.4	1638.7
303.15 K, x2 = 0.3788	1098.32	1648.3
303.15 K, x2 = 0.4492	1093.05	1656.7
303.15 K, x2 = 0.5121	1087.76	1663.9
303.15 K, x2 = 0.6192	1077.07	1675.3
303.15 K, x2 = 0.7099	1065.88	1683.4
303.15 K, x2 = 0.7849	1054.74	1689.1
303.15 K, x2 = 0.8509	1043.15	1693.5
303.15 K, x2 = 0.907	1031.61	1697.1
303.15 K, x2 = 0.9561	1019.93	1700.3
308.15 K, x2 = 0	1115.26	1595.5
308.15 K, x2 = 0.1159	1110.42	1610
308.15 K, x2 = 0.2165	1105.26	1622.1
308.15 K, x2 = 0.3017	1100.25	1632
308.15 K, x2 = 0.3788	1095.08	1640.8
308.15 K, x2 = 0.4492	1089.75	1648.6
308.15 K, x2 = 0.5121	1084.39	1655.1
308.15 K, x2 = 0.6192	1073.56	1665
308.15 K, x2 = 0.7099	1062.26	1671.8
308.15 K, x2 = 0.7849	1051.01	1676.7
308.15 K, x2 = 0.8509	1039.31	1680.6
308.15 K, x2 = 0.907	1027.72	1683.5
308.15 K, x2 = 0.9561	1015.99	1685.9
313.15 K, x2 = 0	1112.4	1587
313.15 K, x2 = 0.1159	1107.47	1601.8
313.15 K, x2 = 0.2165	1102.16	1613.9
313.15 K, x2 = 0.3017	1097.05	1623.6
313.15 K, x2 = 0.3788	1091.8	1631.9
313.15 K, x2 = 0.4492	1086.4	1639.2
313.15 K, x2 = 0.5121	1080.99	1645.2
313.15 K, x2 = 0.6192	1070.01	1654.6
313.15 K, x2 = 0.7099	1058.62	1661.1
313.15 K, x2 = 0.7849	1047.27	1665.1
313.15 K, x2 = 0.8509	1035.49	1667.6
313.15 K, x2 = 0.907	1023.83	1669
313.15 K, x2 = 0.9561	1012.03	1670
318.15 K, x2 = 0	1109.6	1578.8
318.15 K, x2 = 0.1159	1104.53	1593.8
318.15 K, x2 = 0.2165	1099.15	1605.9
318.15 K, x2 = 0.3017	1093.95	1614.8
318.15 K, x2 = 0.3788	1088.58	1622.6
318.15 K, x2 = 0.4492	1083.06	1629.4
318.15 K, x2 = 0.5121	1077.57	1635.1
318.15 K, x2 = 0.6192	1066.47	1643.9
318.15 K, x2 = 0.7099	1054.94	1649.5
318.15 K, x2 = 0.7849	1043.54	1652.8
318.15 K, x2 = 0.8509	1031.7	1654.6
318.15 K, x2 = 0.907	1019.92	1655.3
318.15 K, x2 = 0.9561	1008.07	1655.3
323.15 K, x2 = 0	1106.78	1570.6
323.15 K, x2 = 0.1159	1101.56	1585.9
323.15 K, x2 = 0.2165	1096.03	1597.2
323.15 K, x2 = 0.3017	1090.73	1605.9
323.15 K, x2 = 0.3788	1085.31	1613.5
323.15 K, x2 = 0.4492	1079.76	1620.1
323.15 K, x2 = 0.5121	1074.18	1625.6
323.15 K, x2 = 0.6192	1062.92	1633.2
323.15 K, x2 = 0.7099	1051.26	1637.5
323.15 K, x2 = 0.7849	1039.74	1639.8
323.15 K, x2 = 0.8509	1027.82	1641.3
323.15 K, x2 = 0.907	1016	1641.8
323.15 K, x2 = 0.9561	1004.09	1641
